From ChEMBL document CHEMBL1201862, “PubChem BioAssay data set” (2004) come the findings set out here.

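Step 1: Grow cells in 96-well plates. Step 2: Expose to compound for 48 hours at 5 concentrations. Step 3: Interpolate endpoints linearly; if unreached, use highest concentration. GI50 marks 50% less growth.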 The source made the active and inactive calls. No stated cut-off is given here; in the data, active = GI50 up to about 1.1 µM and inactive = higher.

Some test systems named below: ACHN; HT-29; Hs-578T; MCF7; NCI-H226; NCI-H23; NCI-H522; OVCAR-5; OVCAR-8; PC-3; SF-268; SF-539; SK-MEL-28; SK-MEL-5; SW-620; U-251; UACC-257; UACC-62; UO-31; HOP-92.
What all share (experiment): growth of human tumour cells (NCI), 48 h

Turning to `O=C(Nc1ccc(Br)c2ccccc12)c1ccc2ccccc2c1O`, the GI50 was 3.09 µM (inactive) in the test with ACHN; 3.67 µM (inactive) with HT-29; 2.79 µM (inactive) with Hs-578T; 2.73 µM (inactive) in the test on MCF7; 1.87 µM (inactive) in the test on NCI-H226; 1.9 µM (inactive) with NCI-H23. Further, the GI50 in the test with NCI-H522 is 1.71 µM (inactive); with OVCAR-5 it was 2.75 µM (inactive); in the test on OVCAR-8 it was 3.86 µM (inactive); with PC-3, 1.35 µM (inactive); in the test on SF-268, 3.87 µM (inactive); with SF-539, 5.16 µM (inactive). For the same compound, the GI50 in the test on SK-MEL-28 was 4.7 µM (inactive); in the test with SK-MEL-5, 1.61 µM (inactive); in the test on SW-620, 2.26 µM (inactive); in the test on U-251 it was 1.73 µM (inactive); with UACC-257, 1.95 µM (inactive); in the test on UACC-62, 1.82 µM (inactive). In addition, the GI50 in the test on UO-31 is 2.51 µM (inactive).

`Cn1c(COC(=O)Nc2ccccc2)c(COC(=O)Nc2ccccc2)c2ccc3cc(Cl)c(Cl)cc3c21`: the GI50 with ACHN was 8.79 µM (inactive); with HOP-92, 2.1 µM (inactive); in the test on HT-29 it was 8.02 µM (inactive); in the test on Hs-578T, 5.73 µM (inactive); in the test with MCF7, 2.14 µM (inactive); in the test on NCI-H226, 13.4 µM (inactive). The GI50 was 2.63 µM (inactive) in the test on NCI-H23; 10.7 µM (inactive) in the test with OVCAR-5; 6.73 µM (inactive) in the test with OVCAR-8; 8.05 µM (inactive) in the test with PC-3; 3.57 µM (inactive) with SF-268; 10.8 µM (inactive) with SF-539. Also, the GI50 with SK-MEL-28 is 3.61 µM (inactive); with SK-MEL-5, 4.62 µM (inactive); in the test with SW-620 it was 2.69 µM (inactive); with U-251 it was 1.95 µM (inactive); with UACC-257 it was 8.39 µM (inactive); in the test on UACC-62, 6.24 µM (inactive). For the same compound, the GI50 in the test on UO-31 was 10.4 µM (inactive).

Regarding `C=CCN1C(=O)/C(=C/c2ccccc2)N=C1SC/C=C/C`, the GI50 in the test on ACHN is 80.4 µM (inactive); in the test with HOP-92, 12.2 µM (inactive); in the test with Hs-578T it was 69.5 µM (inactive); in the test with MCF7, 33.1 µM (inactive); with NCI-H226 it was 31.8 µM (inactive); in the test on NCI-H23, 58.7 µM (inactive). The GI50 in the test on NCI-H522 is 33 µM (inactive); in the test with OVCAR-8 it was 45.1 µM (inactive); with PC-3 it was 22.3 µM (inactive); in the test with SF-268, 57.9 µM (inactive); in the test on SF-539, > 100 µM (inactive); in the test on SK-MEL-28 it was 69.3 µM (inactive). Moreover, the GI50 was 18.4 µM (inactive) in the test with SK-MEL-5; 46.1 µM (inactive) in the test on SW-620; 48.1 µM (inactive) in the test on U-251; 28.3 µM (inactive) in the test on UACC-257; 51.5 µM (inactive) with UACC-62; 39.9 µM (inactive) in the test with UO-31.

In the case of `CC(=O)Nc1ccc2cc3c(nc2n1)c1cccnc1n3S(=O)(=O)c1ccccc1`, the GI50 with ACHN, in the test with HOP-92, in the test with HT-29, in the test with Hs-578T, in the test with MCF7 and with NCI-H226 was > 100 µM (inactive) in each case. In addition, the GI50 with NCI-H23 was 10.5 µM (inactive); in the test on NCI-H522, > 100 µM (inactive); in the test with OVCAR-5, > 100 µM (inactive); in the test with OVCAR-8, > 100 µM (inactive); with PC-3 it was > 100 µM (inactive); in the test on SF-268, > 100 µM (inactive). Further, the GI50 with SK-MEL-28, in the test with SK-MEL-5, in the test with SW-620, with U-251, with UACC-257 and with UACC-62 was > 100 µM (inactive) each time. The GI50 with UO-31 is 0.195 µM (active).

Regarding `CCOC(=O)C(Cc1ccc2c(c1)CCC2)Cc1ccc2c(c1)CCC2`, the GI50 in the test with ACHN is > 100 µM (inactive); in the test on HOP-92, > 100 µM (inactive); in the test with HT-29, 45.9 µM (inactive); in the test with Hs-578T, > 100 µM (inactive); in the test with MCF7 it was 45.4 µM (inactive); in the test on NCI-H23 it was 69 µM (inactive). In addition, the GI50 in the test on NCI-H522 is 44.9 µM (inactive); with OVCAR-5 it was > 100 µM (inactive); in the test on OVCAR-8, > 100 µM (inactive); in the test on PC-3, 38.9 µM (inactive); in the test on SF-268 it was > 100 µM (inactive); with SF-539, > 100 µM (inactive). Also, the GI50 with SK-MEL-28 was > 100 µM (inactive); in the test on SK-MEL-5, 18.5 µM (inactive); with SW-620, > 100 µM (inactive); with U-251 it was 51.4 µM (inactive); in the test with UACC-257, 54.5 µM (inactive); with UO-31, 78 µM (inactive).

As to `Cc1nc(-c2cc3cc(Cl)ccc3oc2=O)cc2c1c(=O)oc1ccc(Cl)cc12`, the GI50 in the test on ACHN is > 100 µM (inactive); in the test on HOP-92, > 100 µM (inactive); in the test on HT-29, > 100 µM (inactive); in the test with Hs-578T, 72.3 µM (inactive); in the test on MCF7 it was > 100 µM (inactive); with NCI-H226, > 100 µM (inactive). For the same compound, the GI50 was > 100 µM (inactive) in the test with NCI-H23; 70.3 µM (inactive) with NCI-H522; > 100 µM (inactive) with OVCAR-8; > 100 µM (inactive) with PC-3; > 100 µM (inactive) with SF-268; > 100 µM (inactive) in the test with SK-MEL-28. Moreover, the GI50 in the test on SK-MEL-5, in the test with SW-620, in the test with U-251, in the test with UACC-257, in the test on UACC-62 and in the test on UO-31 was > 100 µM (inactive) throughout.

`Cc1c(-c2ccccc2)n(C)c2cn[nH]c(=O)c12`: the GI50 is 44.3 µM (inactive) with ACHN; 81.1 µM (inactive) in the test with HOP-92; 26.1 µM (inactive) in the test on HT-29; 41.2 µM (inactive) with Hs-578T; 31.5 µM (inactive) with MCF7; 38.4 µM (inactive) in the test on NCI-H23. Moreover, the GI50 in the test on NCI-H522 was > 100 µM (inactive); in the test with OVCAR-5, 52.2 µM (inactive); with OVCAR-8, 39.2 µM (inactive); in the test on PC-3, 19.7 µM (inactive); in the test on SF-268, 37.5 µM (inactive); in the test with SF-539 it was 45 µM (inactive). Further, the GI50 with SK-MEL-28 is 47.3 µM (inactive); in the test with SK-MEL-5 it was 17.3 µM (inactive); in the test on SW-620, 47.1 µM (inactive); with U-251, 32.3 µM (inactive); in the test on UACC-257 it was 45.5 µM (inactive); with UACC-62, 34.9 µM (inactive). Moreover, the GI50 in the test with UO-31 is 44.1 µM (inactive).

Take `C[C@@H]1OC(=O)C[C@H]2CC(=O)N(CCc3cn(S(=O)(=O)C(F)(F)F)c4ccccc34)C[C@@H]21`: the GI50 in the test with ACHN, in the test on HOP-92, with HT-29, in the test with Hs-578T, in the test on MCF7 and in the test with NCI-H23 was > 100 µM (inactive) throughout. Further, the GI50 with NCI-H522, in the test on OVCAR-5, in the test with OVCAR-8, in the test with PC-3, in the test with SF-268 and in the test with SK-MEL-28 was > 100 µM (inactive) in each case. The GI50 in the test with SK-MEL-5, in the test on SW-620, in the test with U-251, in the test with UACC-257, in the test on UACC-62 and in the test with UO-31 was > 100 µM (inactive) each time.

Consider `COc1ccc(C2C(C#N)=C(S)N(C3OC(COC(C)=O)C(OC(C)=O)C(OC(C)=O)C3OC(C)=O)C(C)=C2C(C)=O)cc1` (stereo not drawn), for which the GI50 with ACHN is 77.1 µM (inactive); in the test on HOP-92, 30 µM (inactive); in the test on HT-29, 71.3 µM (inactive); with Hs-578T, 59.3 µM (inactive); in the test on MCF7 it was > 100 µM (inactive); with NCI-H23 it was > 100 µM (inactive). In addition, the GI50 with OVCAR-5 was > 100 µM (inactive); in the test on PC-3 it was 31.3 µM (inactive); in the test with SF-268 it was > 100 µM (inactive); in the test on SF-539, > 100 µM (inactive); with SK-MEL-28 it was > 100 µM (inactive); in the test on SK-MEL-5 it was 26.4 µM (inactive). For the same compound, the GI50 is 42.3 µM (inactive) in the test on SW-620; > 100 µM (inactive) in the test with U-251; > 100 µM (inactive) in the test with UACC-257; 57.5 µM (inactive) with UACC-62; 81.8 µM (inactive) with UO-31.

Turning to `Cc1ccc(NC(=O)CC(=O)N2N=C(N3CCCCC3)CC2c2ccccc2)cc1` (stereo not drawn), the GI50 with ACHN, in the test with HOP-92, in the test with HT-29, in the test on Hs-578T, with MCF7 and with NCI-H226 was > 100 µM (inactive) throughout. For the same compound, the GI50 in the test on NCI-H23, in the test with NCI-H522, in the test on OVCAR-5, with OVCAR-8, in the test with PC-3 and in the test on SF-268 was > 100 µM (inactive) in each case. In addition, the GI50 with SK-MEL-28, with SK-MEL-5, in the test on SW-620, in the test with U-251, in the test with UACC-257 and with UACC-62 was > 100 µM (inactive) throughout. Besides, in the test on UO-31, the GI50 was > 100 µM (inactive).

For `Cc1cc(C)n(-c2nc3ccccc3c(=O)[nH]2)n1`, the GI50 in the test on ACHN was 2.49 µM (inactive); with HOP-92 it was 21.7 µM (inactive); in the test on HT-29 it was 2.74 µM (inactive); with Hs-578T, 24.8 µM (inactive); with MCF7, 3.78 µM (inactive); in the test with NCI-H23 it was 7.96 µM (inactive). For the same compound, the GI50 is 2.81 µM (inactive) with NCI-H522; > 77.3 µM (inactive) with OVCAR-5; 0.863 µM (active) with OVCAR-8; 5.96 µM (inactive) in the test with PC-3; 4.1 µM (inactive) in the test on SF-268; 4.4 µM (inactive) in the test on SF-539. Also, the GI50 was 6.82 µM (inactive) in the test with SK-MEL-28; 2.64 µM (inactive) with SK-MEL-5; 3.28 µM (inactive) in the test with SW-620; 3.24 µM (inactive) with U-251; 33.6 µM (inactive) in the test on UACC-257; 2.78 µM (inactive) with UACC-62. Also, the GI50 in the test on UO-31 was 3.77 µM (inactive).
